From patent publication US9802927B2, “Oxadiazine compounds and methods of use thereof” (Denali Therapeutics, Inc., priority 2015, dated 2017)

What follows are compounds tested on Aβ42 (assay: In vitro cell screening assay in H4 cells expressing human APP751: Aβ42 by sandwich ELISA). Conditions: Homo sapiens, compounds 0.003-10 μM, incubated overnight (16-18 h), sandwich ELISA of supernatant.
Format: cell-based
Method: Human neuroglioma H4 cells were transfected with a pcDNA3.1 plasmid expressing human wild type APP751 cDNA and a stable cell line was generated using G418 selection. Cells were plated at 15,000 cells/well in Costar 96-well plates and placed at 37° C. and 5% CO2. Six hours after plating, cells were washed three times with Pro293™ chemically defined medium, followed by addition of compounds (0.003-10 μM, final DMSO concentration of 0.33%). Plates were incubated overnight (16-18 h) and supernatant was removed for quantification of Aβ peptides by sandwich ELISA. Cytotoxicity was evaluated using Cell-Titer 96W AQueous One Solution Cell Proliferation Assay according to the manufacturer's protocol.
Aβ peptide levels were quantified by sandwich ELISA. 96-well plates were coated with C-terminal specific Aβ antibodies recognizing either Aβ37, Aβ38, Aβ40, Aβ42, Aβ43 or a N-terminal specific Aβ antibody to detect Aβ 1-x. Plates were then blocked overnight at 4° C. with 1% bovine serum albumin (BSA) in PBS-T. Plates were washed and 100 μl of cultured cell supernatant or synthetic Aβ peptide standards and a detection antibody (4G8-HRP) were applied to the blocked plate and incubated overnight at 4° C. The next day, wells were washed before the addition of detection substrate (TMB peroxidase). Plates were then read for absorbance at 450 nm on a Molecular Devices SpectraMax M5e Microplate Reader.
Compound-treated samples were normalized to samples treated with DMSO alone (no inhibition) and to samples treated with DAPT. EC50 values were calculated from values reported as percent of DMSO controls using nonlinear regression, based on a sigmoidal dose response (variable slope) model. GraphPAD software from Prism used for calculation.

EC50 | Structure (SMILES)
61.9 nM | COc1nc(C2=NOCC(c3cc4cccc(C)c4o3)N2C)ccc1-n1cnc(C)c1 (single isomer, unassigned; (+)) [Example 23, (+)-3-(6-Methoxy-5-(4-methyl-1H-imidazol-1-yl)pyridin-2-yl)-4-methyl-5-(7-methylbenzofuran-2-yl)-5,6-dihydro-4H-1,2,4-oxadiazine]
13.7 nM | COc1nc(C2=NOCC(c3cc4cccc(C)c4o3)N2)ccc1-n1cnc(Cl)c1 (single isomer, unassigned; (+)) [Example 24, (+)-3-(5-(4-Chloro-1H-imidazol-1-yl)-6-methoxypyridin-2-yl)-5-(7-methylbenzofuran-2-yl)-5,6-dihydro-4H-1,2,4-oxadiazine]
147 nM | COc1cn(-c2ccc(C3=NOCC(c4cc5cccc(C)c5o4)N3)nc2OC)cn1 (single isomer, unassigned; (+)) [Example 33, (+)-3-(6-methoxy-5-(4-methoxy-1H-imidazol-1-yl)pyridin-2-yl)-5-(7-methylbenzofuran-2-yl)-5,6-dihydro-4H-1,2,4-oxadiazine]

Same assay, conditions: compounds 0.003-10 μM, incubated overnight (16-18 h), sandwich ELISA of supernatant

EC50 | Structure (SMILES)
> 3000 nM | COc1nc(C2=NOCC(C3CC3)N2)ccc1-n1cnc(C)c1 (single isomer, unassigned) [Example 134A, 5-cyclopropyl-3-(6-methoxy-5-(4-methyl-1H-imidazol-1-yl)pyridin-2-yl)-5,6-dihydro-4H-1,2,4-oxadiazine]
1100 nM | COc1nc(C2=NOCC(C3CC3)N2)ccc1-n1cnc(C)c1 (single isomer, unassigned) [Example 134B, 5-cyclopropyl-3-(6-methoxy-5-(4-methyl-1H-imidazol-1-yl)pyridin-2-yl)-5,6-dihydro-4H-1,2,4-oxadiazine]
143 nM | COc1nc(C2=NOCC(c3ccccc3Cl)N2)ccc1-n1cnc(C)c1 (single isomer, unassigned) [Example 136A, 5-(2-chlorophenyl)-3-(6-methoxy-5-(4-methyl-1H-imidazol-1-yl)pyridin-2-yl)-5,6-dihydro-4H-1,2,4-oxadiazine]
775 nM | COc1nc(C2=NOCC(c3ccccc3Cl)N2)ccc1-n1cnc(C)c1 (single isomer, unassigned) [Example 136B, 5-(2-chlorophenyl)-3-(6-methoxy-5-(4-methyl-1H-imidazol-1-yl)pyridin-2-yl)-5,6-dihydro-4H-1,2,4-oxadiazine]
> 3000 nM | COc1nc(C2=NOCC(CC3CC3)N2)ccc1-n1cnc(C)c1 (single isomer, unassigned) [Example 159A, 5-(cyclopropylmethyl)-3-(6-methoxy-5-(4-methyl-1H-imidazol-1-yl)pyridin-2-yl)-5,6-dihydro-4H-1,2,4-oxadiazine]
695 nM | COc1nc(C2=NOCC(CC3CC3)N2)ccc1-n1cnc(C)c1 (single isomer, unassigned) [Example 159B, 5-(cyclopropylmethyl)-3-(6-methoxy-5-(4-methyl-1H-imidazol-1-yl)pyridin-2-yl)-5,6-dihydro-4H-1,2,4-oxadiazine]
> 3000 nM | COc1nc(C2=NOCC(c3noc4ccccc34)N2)ccc1-n1cnc(C)c1 (single isomer, unassigned) [Example 174A, 3-(3-(6-methoxy-5-(4-methyl-1H-imidazol-1-yl)pyridin-2-yl)-5,6-dihydro-4H-1,2,4-oxadiazin-5-yl) benzo[d]isoxazole]
281 nM | COc1nc(C2=NOCC(c3noc4ccccc34)N2)ccc1-n1cnc(C)c1 (single isomer, unassigned) [Example 174B, 3-(3-(6-methoxy-5-(4-methyl-1H-imidazol-1-yl)pyridin-2-yl)-5,6-dihydro-4H-1,2,4-oxadiazin-5-yl) benzo[d]isoxazole]
654 nM | COc1nc(C2=NOCC(c3ccc(Cl)c(C(F)(F)F)c3)N2)ccc1-n1cnc(C)c1 (single isomer, unassigned) [Example 253A, 5-(4-chloro-3-(trifluoromethyl)phenyl)-3-(6-methoxy-5-(4-methyl-1H-imidazol-1-yl)pyridin-2-yl)-5,6-dihydro-4H-1,2,4-oxadiazine]
8.4 nM | COc1nc(C2=NOCC(c3ccc(Cl)c(C(F)(F)F)c3)N2)ccc1-n1cnc(C)c1 (single isomer, unassigned) [Example 253B, 5-(4-chloro-3-(trifluoromethyl)phenyl)-3-(6-methoxy-5-(4-methyl-1H-imidazol-1-yl)pyridin-2-yl)-5,6-dihydro-4H-1,2,4-oxadiazine]
636 nM | COc1nc(C2=NOCC(c3cc4ccccc4o3)N2)ccc1-n1cnc(C)n1 (single isomer, unassigned; (+)) [Example 31B, (+)-5-(Benzofuran-2-yl)-3-(6-methoxy-5-(3-methyl-1H-1,2,4-triazol-1-yl)pyridin-2-yl)-5,6-dihydro-4H-1,2,4-oxadiazine]
11.4 nM | COc1nc(C2=NOCC(c3ccc(Cl)c(Cl)c3)N2)ccc1-n1cnc(C)c1 (single isomer, unassigned; (+)) [Example 49B, (+)-5-(3,4-dichlorophenyl)-3-(6-methoxy-5-(4-methyl-1H-imidazol-1-yl)pyridin-2-yl)-5,6-dihydro-4H-1,2,4-oxadiazine]
24.6 nM | COc1nc(C2=NOCC(c3cc4ccc(F)cc4o3)N2)ccc1-n1cnc(C)c1 (single isomer, unassigned; (+)) [Example 52B, (+)-5-(6-fluorobenzofuran-2-yl)-3-(6-methoxy-5-(4-methyl-1H-imidazol-1-yl)pyridin-2-yl)-5,6-dihydro-4H-1,2,4-oxadiazine]
97.4 nM | COc1ccc(C2CON=C(c3ccc(-n4cnc(C)c4)c(OC)n3)N2)cc1 (single isomer, unassigned; (+)) [Example 54B, (+)-3-(6-methoxy-5-(4-methyl-1H-imidazol-1-yl)pyridin-2-yl)-5-(4-methoxyphenyl)-5,6-dihydro-4H-1,2,4-oxadiazine]
17.8 nM | COc1nc(C2=NOCC(c3cc4cc(Cl)ccc4o3)N2)ccc1-n1cnc(C)c1 (single isomer, unassigned; (+)) [Example 57B, (+)-5-(5-chlorobenzofuran-2-yl)-3-(6-methoxy-5-(4-methyl-1H-imidazol-1-yl)pyridin-2-yl)-5,6-dihydro-4H-1,2,4-oxadiazine]
33.7 nM | COc1nc(C2=NOCC(c3ccc(C(F)(F)F)cc3)N2)ccc1-n1cnc(C)c1 (single isomer, unassigned; (+)) [Example 59B, (+)-3-(6-methoxy-5-(4-methyl-1H-imidazol-1-yl)pyridin-2-yl)-5-(4-(trifluoromethyl)phenyl)-5,6-dihydro-4H-1,2,4-oxadiazine]
57.8 nM | COc1nc(C2=NOCC(C3CCCCC3)N2)ccc1-n1cnc(C)c1 (single isomer, unassigned; (+)) [Example 61B, (+)-5-cyclohexyl-3-(6-methoxy-5-(4-methyl-1H-imidazol-1-yl)pyridin-2-yl)-5,6-dihydro-4H-1,2,4-oxadiazine]
12.2 nM | COc1nc(C2=NOCC(c3cc4cccc(Cl)c4o3)N2)ccc1-n1cnc(C)c1 (single isomer, unassigned; (+)) [Example 64B, (+)-5-(7-chlorobenzofuran-2-yl)-3-(6-methoxy-5-(4-methyl-1H-imidazol-1-yl)pyridin-2-yl)-5,6-dihydro-4H-1,2,4-oxadiazine]
